Assays:
human AT1 receptor = molecular target: T1, human AT1 receptor (Homo sapiens, UniProt P30556); assay: AT1 receptor antagonistic activity: [125I]-angiotensin II binding assay on human AT1 receptor-expressing CHO-K1 cellular membrane fraction; conditions: 22.5 pM [125I]-angiotensin II, 1 hr room temperature
T1 construct: expressed in transfected cells; membrane fraction
T1 sequence (P30556 1-359): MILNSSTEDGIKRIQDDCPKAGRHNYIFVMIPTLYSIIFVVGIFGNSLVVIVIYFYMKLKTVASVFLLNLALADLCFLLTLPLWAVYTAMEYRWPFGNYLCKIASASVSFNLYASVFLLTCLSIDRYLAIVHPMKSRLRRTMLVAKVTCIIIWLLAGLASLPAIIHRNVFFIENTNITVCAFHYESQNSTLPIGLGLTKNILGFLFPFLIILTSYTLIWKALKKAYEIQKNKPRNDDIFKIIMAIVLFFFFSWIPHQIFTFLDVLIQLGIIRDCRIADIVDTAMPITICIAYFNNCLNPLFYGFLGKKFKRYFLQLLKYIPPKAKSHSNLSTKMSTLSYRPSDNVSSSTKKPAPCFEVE
In short: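 Competition binding used radiolabelled angiotensin II on stably transfected CHO-K1 membrane fractions in Tris pH 7.4/MgCl2 buffer, optionally containing 0.3 mg/mL fatty acid-free BSA, 1 hr at room temperature. Filtration onto GF/C separated bound tracer, and nonspecific binding was measured with candesartan.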

human PPARγ = molecular target: T2, human PPARγ (Homo sapiens, UniProt P37231); assay: PPARγ agonistic activity: luciferase reporter assay in PPARγ:RXRα:4ERPP/CHO-K1 cells; format: cell-based; conditions: CHO-K1, test compound 10^−6 M; luciferase activity of control compound X (1 μM) = 100%, non-administration group = 0%
T2 construct: expressed in transfected cells
T2 sequence (P37231 1-477 isoform P37231-2): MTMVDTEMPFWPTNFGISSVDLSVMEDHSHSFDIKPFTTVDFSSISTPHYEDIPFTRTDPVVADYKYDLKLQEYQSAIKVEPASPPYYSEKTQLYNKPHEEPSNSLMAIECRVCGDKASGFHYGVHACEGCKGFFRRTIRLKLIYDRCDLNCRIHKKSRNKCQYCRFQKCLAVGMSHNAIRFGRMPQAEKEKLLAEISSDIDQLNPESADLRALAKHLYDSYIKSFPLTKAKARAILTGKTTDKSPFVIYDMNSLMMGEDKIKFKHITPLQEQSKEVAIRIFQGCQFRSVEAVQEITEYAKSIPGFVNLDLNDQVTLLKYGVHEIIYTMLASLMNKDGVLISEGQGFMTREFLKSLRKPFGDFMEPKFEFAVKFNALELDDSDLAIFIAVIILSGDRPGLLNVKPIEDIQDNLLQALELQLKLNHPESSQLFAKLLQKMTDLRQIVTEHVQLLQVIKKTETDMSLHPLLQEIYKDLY
T2 sequence (P19793 1-462 partner): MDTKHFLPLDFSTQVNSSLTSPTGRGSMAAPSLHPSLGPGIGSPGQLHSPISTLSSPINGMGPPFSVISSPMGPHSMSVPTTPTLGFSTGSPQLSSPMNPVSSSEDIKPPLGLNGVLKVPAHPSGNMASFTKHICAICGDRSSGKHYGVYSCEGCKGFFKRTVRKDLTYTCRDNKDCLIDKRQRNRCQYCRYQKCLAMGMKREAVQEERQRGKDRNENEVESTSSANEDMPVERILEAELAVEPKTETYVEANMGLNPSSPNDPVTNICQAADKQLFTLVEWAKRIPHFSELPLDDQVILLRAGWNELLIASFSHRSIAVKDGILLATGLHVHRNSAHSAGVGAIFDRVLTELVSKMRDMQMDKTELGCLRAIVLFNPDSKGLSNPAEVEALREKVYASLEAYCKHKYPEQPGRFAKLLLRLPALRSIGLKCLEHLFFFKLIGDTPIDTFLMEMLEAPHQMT
In short: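 CHO-K1 cells stably carrying hPPARγ/RXRα and a 4ERPP luciferase reporter, dosed with test compound for 1 day at 37 °C in Ham's F12 with 0.1% fatty acid-free BSA. Luciferase read by luminescence; activity given as % of 1 μM control compound X (100%) versus untreated (0%).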

Row | IC50 (human AT1 receptor) | activation at 1 µM (human PPARγ) | Compound
1 | 1.9 nM | 26% | CCCc1c(Cc2ccc(-c3ccccc3-c3noc(=O)[nH]3)cc2F)c(=O)n([C@H]2CC[C@H](OCC(C)(C)O)CC2)c2ncnn12 [Example 233, 6-{[3-fluoro-2′-(5-oxo-4,5-dihydro-1,2,4-oxadiazol-3-yl)biphenyl-4-yl]methyl}-4-[trans-4-(2-hydroxy-2-methylpropoxy)cyclohexyl]-7-propyl[1,2,4]triazolo[1,5-a]pyrimidin-5(4H)-one]
2 | 1.4 nM | 20% | CCCc1c(Cc2ccc(-c3ccccc3-c3noc(=O)[nH]3)cc2)c(=O)n([C@H]2CC[C@H](OCC(O)C(F)F)CC2)c2ncnn12 (stereo partly drawn) [Example 352, 4-[trans-4-(3,3-difluoro-2-hydroxypropoxy)cyclohexyl]-6-{[2′-(5-oxo-4,5-dihydro-1,2,4-oxadiazol-3-yl)biphenyl-4-yl]methyl}-7-propyl[1,2,4]triazolo[1,5-a]pyrimidin-5(4H)-one]
3 | 2.1 nM | 34% | CCCc1c(Cc2ccc(-c3ccccc3-c3noc(=O)[nH]3)cc2F)c(=O)n(-c2ccc(OC(C)C)cc2)c2ncnn12 [Example 43, 6-{[3-fluoro-2′-(5-oxo-4,5-dihydro-1,2,4-oxadiazol-3-yl)biphenyl-4-yl]methyl}-4-[4-(1-methylethoxy)phenyl]-7-propyl[1,2,4]triazolo[1,5-a]pyrimidin-5(4H)-one]
4 | 1.4 nM | 54% | CCCc1c(Cc2ccc(-c3ccccc3-c3noc(=O)[nH]3)cc2)c(=O)n([C@H]2CC[C@H](c3nc(C)no3)CC2)c2ncnn12 [Example 169, 4-[trans-4-(3-methyl-1,2,4-oxadiazol-5-yl)cyclohexyl]-6-{[2′-(5-oxo-4,5-dihydro-1,2,4-oxadiazol-3-yl)biphenyl-4-yl]methyl}-7-propyl[1,2,4]triazolo[1,5-a]pyrimidin-5(4H)-one]
5 | 1.9 nM | 23% | CCCCc1c(Cc2ccc(-c3ccccc3-c3noc(=O)[nH]3)cc2)c(=O)n(C2CCOCC2)c2ncnn12 [Example 125, 7-butyl-6-{[2′-(5-oxo-4,5-dihydro-1,2,4-oxadiazol-3-yl)biphenyl-4-yl]methyl}-4-(tetrahydro-2H-pyran-4-yl)[1,2,4]triazolo[1,5-a]pyrimidin-5(4H)-one]
6 | 2.1 nM | 25% | CCCCc1c(Cc2ccc(-c3ccccc3-c3noc(=O)[nH]3)cc2)c(=O)n([C@H]2CC[C@H](OCC(C)(C)O)CC2)c2ccnn12 [Example 434, 7-butyl-4-[trans-4-(2-hydroxy-2-methylpropoxy)cyclohexyl]-6-{[2′-(5-oxo-4,5-dihydro-1,2,4-oxadiazol-3-yl)biphenyl-4-yl]methyl}pyrazolo[1,5-a]pyrimidin-5(4H)-one]
7 | 2.2 nM | 16% | CCCc1c(Cc2ccc(-c3ccccc3-c3noc(=O)[nH]3)cc2)c(=O)n(C2CCOCC2)c2ccnn12 [Example 269, 6-{[2′-(5-oxo-4,5-dihydro-1,2,4-oxadiazol-3-yl)biphenyl-4-yl]methyl}-7-propyl-4-(tetrahydro-2H-pyran-4-yl)pyrazolo[1,5-a]pyrimidin-5(4H)-one]
8 | 1.9 nM | 19% | CCCc1c(Cc2ccc(-c3ccccc3-c3noc(=O)[nH]3)cc2)c(=O)n([C@H]2CC[C@H](OCC(C)(O)C(F)(F)F)CC2)c2ncnn12 (stereo partly drawn) [Example 335, 6-{[2′-(5-oxo-4,5-dihydro-1,2,4-oxadiazol-3-yl)biphenyl-4-yl]methyl}-7-propyl-4-[trans-4-(3,3,3-trifluoro-2-hydroxy-2-methylpropoxy)cyclohexyl][1,2,4]triazolo[1,5-a]pyrimidin-5(4H)-one]
9 | 1.8 nM | 42% | CCCc1c(Cc2ccc(-c3ccccc3-c3noc(=O)[nH]3)cc2)c(=O)n([C@H]2CC[C@@H](Oc3ccon3)CC2)c2ncnn12 [Example 281, 4-[cis-4-(isoxazol-3-yloxy)cyclohexyl]-6-{[2′-(5-oxo-4,5-dihydro-1,2,4-oxadiazol-3-yl)biphenyl-4-yl]methyl}-7-propyl[1,2,4]triazolo[1,5-a]pyrimidin-5(4H)-one]
10 | 2 nM | 31% | CCCc1c(Cc2ccc(-c3ccccc3-c3noc(=O)[nH]3)cc2)c(=O)n(CC2CC2)c2ncnn12 [Example 21, 4-(cyclopropylmethyl)-6-{[2′-(5-oxo-4,5-dihydro-1,2,4-oxadiazol-3-yl)biphenyl-4-yl]methyl}-7-propyl[1,2,4]triazolo[1,5-a]pyrimidin-5(4H)-one]
11 | 2.4 nM | 26% | CCCc1c(Cc2ccc(-c3ccccc3-c3noc(=O)[nH]3)cc2)c(=O)n(Cc2ccc(CC)nc2)c2nc(C)nn12 [Example 7, 4-[(6-ethylpyridin-3-yl)methyl]-2-methyl-6-{[2′-(5-oxo-4,5-dihydro-1,2,4-oxadiazol-3-yl)biphenyl-4-yl]methyl}-7-propyl[1,2,4]triazolo[1,5-a]pyrimidin-5(4H)-one]
12 | 1.4 nM | 20% | CCCCc1c(Cc2ccc(-c3ccccc3-c3noc(=O)[nH]3)cc2)c(=O)n(C2CCOC(C)(C)C2)c2nc(C)nn12 (centres unmarked) [Example 137, 7-butyl-4-(2,2-dimethyltetrahydro-2H-pyran-4-yl)-2-methyl-6-{[2′-(5-oxo-4,5-dihydro-1,2,4-oxadiazol-3-yl)biphenyl-4-yl]methyl}[1,2,4]triazolo[1,5-a]pyrimidin-5(4H)-one]
13 | 1.9 nM | 46% | CCCc1c(Cc2ccc(-c3ccccc3-c3noc(=O)[nH]3)cc2)c(=O)n(C2CCC3(CC2)OCCO3)c2nc(C)nn12 [Example 292, 4-(1,4-dioxaspiro[4.5]dec-8-yl)-2-methyl-6-{[2′-(5-oxo-4,5-dihydro-1,2,4-oxadiazol-3-yl)biphenyl-4-yl]methyl}-7-propyl[1,2,4]triazolo[1,5-a]pyrimidin-5(4H)-one]
14 | 1 nM | 26% | CCCCc1c(Cc2ccc(-c3ccccc3-c3noc(=O)[nH]3)cc2)c(=O)n(C2CCC(O)CC2)c2ncnn12 (centres unmarked) [Example 147, 7-butyl-4-(4-hydroxycyclohexyl)-6-{[2′-(5-oxo-4,5-dihydro-1,2,4-oxadiazol-3-yl)biphenyl-4-yl]methyl}[1,2,4]triazolo[1,5-a]pyrimidin-5(4H)-one]
15 | 0.9 nM | 26% | CCCCc1c(Cc2ccc(-c3ccccc3-c3noc(=O)[nH]3)cc2F)c(=O)n(C2CCOCC2)c2nc(C)nn12 [Example 135, 7-butyl-6-{[3-fluoro-2′-(5-oxo-4,5-dihydro-1,2,4-oxadiazol-3-yl)biphenyl-4-yl]methyl}-2-methyl-4-(tetrahydro-2H-pyran-4-yl)[1,2,4]triazolo[1,5-a]pyrimidin-5(4H)-one]

Row | Compound | IC50 (human AT1 receptor) | activation at 1 µM (human PPARγ)
16 | CCCc1c(Cc2ccc(-c3ccccc3-c3noc(=O)[nH]3)cc2)c(=O)n([C@H]2C[C@H](OCC(O)(CC)CC)C2)c2ncnn12 [Example 259, 4-[trans-3-(2-ethyl-2-hydroxybutoxy)cyclobutyl]-6-{[2′-(5-oxo-4,5-dihydro-1,2,4-oxadiazol-3-yl)biphenyl-4-yl]methyl}-7-propyl[1,2,4]triazolo[1,5-a]pyrimidin-5(4H)-one] | 2.3 nM | 28%

Source: patent publication US8283353B2, “Fused ring compound and use thereof” (Takeda Pharmaceutical Company Limited, priority 2009, dated 2012)
